The Ki is the equilibrium dissociation constant of an inhibitor or competing ligand from its target.

Experiment [1] has as its target T1, CHO cells expressing human CB2 receptors (Homo sapiens, UniProt P34972).
T1 construct: expressed in transfected cells; host or cells: CHO cells, stably transfected
The experiment is described as follows: cell-based LANCE cAMP assay. As to conditions: forskolin-stimulated, RO-20-1724 present, FIG. 4. On the procedure: FIG. 4 relates to cAMP Assay Results. LANCE signal of CB2 ligands. Stably transfected CHO cells expressing human CB2 receptors were utilized to carry out the LANCE cAMP assay. […] Data is mean±SEM of all experiments of two or more performed in triplicate.
(§1) The antibodies are labeled with Alexa Fluor dye that is sensitive to energy emissions. Briefly, the cell-based LANCE cAMP assays were performed on 384-well ProxiPlates using CHO cells stably expressing the CB2 receptors at density of 2×10^3 cells per well in 5 μL of RPMI-1640 medium (Gibco Laboratories, Grand Island, N.Y.) containing 1% dialyzed FBS, 25 mM HEPES, […], and 200 μg/ml of […]. After incubation overnight, 2.5 μL of cAMP antibody and RO20-1724 (a phosphodiesterase inhibitor) in stimulation buffer (DPBS 1×, containing 0.1% BSA) was added to each well, followed by the addition of 2.5 μL of the compound plus the forskolin complex (an adenyl cyclase activator). After incubation at room temperature for 45 minutes, 10 μL of detection buffer was added into each well. The plate was then incubated at room temperature for 1 hour. The plate was then measured in a Synergy H1 hybrid reader (BioTek) with excitation at 340 nm and emission at 665 nm. The results represent at least two independent experiments each in triplicates. EC50 values were determined by nonlinear regression dose-response curve (GraphPad Prism 5).
as §1, with “Cyclic AMP levels were measured by performing the cell-based LANCE cAMP-384 kit assay (PerkinElmer) as previously described 13-14. The assay is based on the competition between the europium-labeled cAMP tracer complex and sample cAMP for binding sites on cAMP-specific antibodies. The antibodies” for “The antibodies”
The LANCE cAMP assay was carried out to measure the functional activities of our synthesized CB2 selective ligands as previously described 14. Briefly, the assay was performed on 384-well plates using CHO cells stably expressing CB2 receptors in the presence of phosphodiesterase inhibitor, RO-20-1724 and adenyl cyclase activator, forskolin.
(Time-resolved FRET reads energy transfer from a long-lived donor to a nearby acceptor.)

Experiment [2] has as its target T2, human CB1 receptors (Homo sapiens, UniProt P21554).
T2 construct: expressed in transfected cells
As to the kind of experiment: [3H]CP-55,940 radioligand competition binding assay, CB1. The settings on record: CHO cell membranes, [3H]CP-55,940 displacement. On the procedure:
(§2) Binding assay. The bioassay is carried out using the Perkin Elmer 96-well Top Counter. This bioassay is also known as a competition binding assay and the biological evaluation is to determine the CB receptor binding affinity (Ki) of the screened ligands by displacing [^3H]-CP-55940 (or other radioligands). The brief procedure is given below.
(§3) Perkin Elmer 96-well TopCounter is used at PMLSC and in our laboratory to determine the CB receptor binding affinity (Ki) of the in-silico screened ligands by displacing [^3H]-CP-55,940 (or other radioligands). In competition binding experiments, the tested compound dilutions are carried out in triplicate in TME buffer (25 mM Tris, 5 mM MgCl2, 1 mM EDTA) containing 0.1% (w/v) fatty acid free bovine serum albumin (BSA), pH 7.4. Various concentrations of the tested compound are added in the same volume to 0.5 nM [^3H]CP-55,940. TME buffer and cell membrane preparations expressing CB receptors (2.5 μg per well) are added to a final volume of 200 μL. For the saturation binding experiments, varying concentrations of [^3H]CP-55,940 (0.05-1.5 nM) with or without 2 μM of unlabeled ligands (CP-55,940 or WIN-55,212-2) are incubated with the receptor membrane preparations to determine Kd and nonspecific binding. After the binding suspensions are incubated at 30° C. for 1 hr, the reaction is terminated by rapid filtration through microfiltration plates coated with 0.5% polyethylenimine (Unifilter GF/B filterplate, PerkinElmer) followed by 5 washes with ice cold TME buffer containing 0.5% BSA on a Packard Filtermate Harvester (PerkinElmer). The plates are then dried overnight and 30 μl MicroScint 0 scintillation cocktail are added to each well of the dried filter plates. Then the bound radioactivity is counted using a Perkin Elmer 96-well TopCounter. The Ki is calculated by using nonlinear regression analysis (Prism 5; GraphPad Software Inc., San Diego, Calif.), with the Kd values for [^3H]CP-55,940 determined from saturation binding experiments. This assay is used for determining binding affinity parameters (Ki) of ligand-receptor interactions for the CB receptor.
(§4) The affinities of the synthesized ligands were determined in radioligand binding studies at human CB1 and CB2 receptors using [3H](—)-cis-3-[2-hydroxy-4-(1,1 dimethylheptyl)phenyl]-trans-4-(3-hydroxypropyl) cyclohexanol (CP55,940) as a CB receptor radioligand. As a source for human CB1 and CB2 receptors, membrane preparations of Chinese hamster ovary (CHO) cells stably expressing the respective receptor subtype were utilized (50 μg of protein/vial). CB2 selective ligand SR144528 (CB2 inverse agonist) and CB1 ligand SR141716 (CB1 inverse agonist) were used as positive controls, respectively, along with the tested compounds in bioassays experiments. Only compounds with high CB2 receptor binding potency was chosen to carry out the CB1 binding assay. CB ligand competition binding assay was carried out as described previously in Gertsch, J., et al., Beta-caryophyllene is a dietary cannabinoid. Proc Natl Acad Sci USA 2008, 105 (26), 9099-104. Briefly, non-radioactive (or cold) ligands (synthesized derivatives and reference ligands) were diluted in a binding buffer (50 mM Tris-HCl (pH 7.4), 5 mM MgC12, 2.5 mM EGTA, and 0.1% (w/v) fatty acid free BSA), supplemented with 10% dimethyl sulfoxide and 0.4% methyl cellulose. Each assay plate well contained a total of 200 μL of reaction mixture composed of 5 μg of CB1 (or 2.5 μg CB2) membrane protein, labeled [3H]-CP-55,940 ligand at a final concentration of 2.5 nM, and the unlabeled ligand at its varying dilutions as stated above. Plates were incubated at 30° C. for 1 hour with gentle shaking.
(§5) The reaction was terminated by rapid filtration through Unifilter GF/B filter plates using a Unifilter Cell Harvester (PerkinElmer). After the plate was allowed to dry overnight, 30 μL MicroScint-0 cocktail (PerkinElmer) was added to each well, and the radioactivity was counted using a PerkinElmer TopCounter. […]
Background: Displacement assays read how much labelled ligand stays bound in the presence of the test substance.

Experiment [3] addresses T3, human CB2 receptors (Homo sapiens, UniProt P34972).
T3 construct: expressed in transfected cells
As to the kind of experiment: [3H]CP-55,940 radioligand competition binding assay, CB2. The settings on record: for Ki: CHO cell membranes, [3H]CP-55,940 displacement. As for the experimental part:
as §2, §3, §4, §5

T2 sequence (P21554 whole entry): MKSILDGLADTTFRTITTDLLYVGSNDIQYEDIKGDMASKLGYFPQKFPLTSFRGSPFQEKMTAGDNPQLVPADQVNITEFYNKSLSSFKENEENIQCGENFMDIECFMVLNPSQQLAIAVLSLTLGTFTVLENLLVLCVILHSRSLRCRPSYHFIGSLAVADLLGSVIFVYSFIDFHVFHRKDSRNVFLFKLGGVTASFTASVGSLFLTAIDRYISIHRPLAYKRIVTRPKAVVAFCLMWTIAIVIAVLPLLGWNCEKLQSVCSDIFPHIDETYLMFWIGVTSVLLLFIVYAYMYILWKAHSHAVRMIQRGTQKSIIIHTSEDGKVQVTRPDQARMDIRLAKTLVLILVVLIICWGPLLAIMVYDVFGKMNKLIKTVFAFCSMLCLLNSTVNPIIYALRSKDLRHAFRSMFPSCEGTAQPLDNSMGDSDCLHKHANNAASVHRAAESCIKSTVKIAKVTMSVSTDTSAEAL
T3 sequence (P34972 whole entry): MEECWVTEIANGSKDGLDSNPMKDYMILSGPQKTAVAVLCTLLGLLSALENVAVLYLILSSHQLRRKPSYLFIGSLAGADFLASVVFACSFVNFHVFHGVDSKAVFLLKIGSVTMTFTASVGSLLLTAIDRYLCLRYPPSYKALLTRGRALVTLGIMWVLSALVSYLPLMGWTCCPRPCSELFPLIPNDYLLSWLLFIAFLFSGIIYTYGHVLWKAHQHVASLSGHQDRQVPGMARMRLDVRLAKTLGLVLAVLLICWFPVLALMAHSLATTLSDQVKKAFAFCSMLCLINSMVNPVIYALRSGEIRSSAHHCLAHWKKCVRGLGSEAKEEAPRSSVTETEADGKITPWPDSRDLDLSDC
T1 sequence (P34972 whole entry): as above

SR-144,528 [reference compound]: the “CB2 functional activity (LANCE cAMP signal)” value in experiment [1] is reported as “inverse agonists”.
`CCN(CC)c1ccc(CN(Cc2ccc3c(c2)OCO3)C(=O)c2cccs2)cc1` [Compound 32, N-(benzo[d][1,3]dioxol-5-ylmethyl)-N-(4-(diethylamino)benzyl)thiophene-2-carboxamide]: the Ki in experiment [2] was 727 nM; in experiment [3], 574 nM. For the same compound, in experiment [3], the “SI: selectivity index for CB2, calculated as Ki(CB1)/Ki(CB2) ratio” value is listed as 2.
`CCCCCN(Cc1ccc(N(CC)CC)cc1)C(=O)c1cnc2ccccc2n1` [Compound 39, N-(4-(diethylamino)benzyl)-N-pentylquinoxaline-2-carboxamide] returned a Ki in experiment [2] of 1860 nM. In addition, in experiment [3], the “SI: selectivity index for CB2, calculated as Ki(CB1)/Ki(CB2) ratio” value was 1 and the Ki came to 1850 nM.
As to `CCCCCN(Cc1ccc(N(CC)CC)cc1)S(=O)(=O)c1ccc(C=O)cc1` [Compound 38, N-(4-(diethylamino)benzyl)-4-formyl-N-pentylbenzenesulfonamide], the inhibitory constant (Ki) in experiment [2] worked out at 1790 nM; in experiment [3], 657 nM. The “SI: selectivity index for CB2, calculated as Ki(CB1)/Ki(CB2) ratio” value in experiment [3] is given as 3.
As to `CCCCCCC(C)(C)c1ccc([C@@H]2C[C@H](O)CC[C@H]2CCCO)c(O)c1` [CP55940, (—)-cis-3-[2-hydroxy-4-(1,1 dimethylheptyl)phenyl]-trans-4-(3-hydroxypropyl) cyclohexanol, reference compound], the “CB2 functional activity (LANCE cAMP signal)” value in experiment [1] was “inhibit cAMP production”.
Consider `CCN(CC)c1ccc(CN(Cc2cc(OC)c(OC)c(OC)c2)S(=O)(=O)c2ccc3ccccc3c2)cc1` [Compound 9, N-(4-(diethylamino)benzyl)-N-(3,4,5-trimethoxybenzyl)naphthalene-2-sulfonamide], for which the Ki in experiment [2] was 71 nM; in experiment [3], 239 nM.
With `CCN(CC)c1ccc(CN(Cc2cc(OC)c(OC)c(OC)c2)S(=O)(=O)c2cccc(C)c2)cc1` [Compound 5, N-(4-(diethylamino)benzyl)-3-methyl-N-(3,4,5-trimethoxybenzyl)benzenesulfonamide], the Ki in experiment [2] was 732 nM. Also, in experiment [3], the “SI: selectivity index for CB2, calculated as Ki(CB1)/Ki(CB2) ratio” value was 3 and affinity was put at a Ki of 291 nM.
For the compound `CCN(CC)c1ccc(CN(Cc2ccc3c(c2)OCO3)S(=O)(=O)c2ccc(C=O)cc2)cc1` [Compound 30, N-(benzo[d][1,3]dioxol-5-ylmethyl)-N-(4-(diethylamino)benzyl)-4-formylbenzenesulfonamide], in experiment [2], the Ki was determined as 2740 nM. For the same compound, in experiment [3], the “SI: selectivity index for CB2, calculated as Ki(CB1)/Ki(CB2) ratio” value was 1 and the affinity corresponds to a Ki of 1870 nM.
The corresponding values for `CCN(CC)c1ccc(CN(Cc2cc(OC)c(OC)c(OC)c2)S(=O)(=O)c2ccc(OC(F)(F)F)cc2)cc1` [Compound 13, N-(4-(diethylamino)benzyl)-4-(trifluoromethoxy)-N-(3,4,5-trimethoxybenzyl)benzenesulfonamide] are 1240 nM, 2 and 990 nM.
As for `CCN(CC)c1ccc(CN(Cc2cc(OC)c(OC)c(OC)c2)C(=O)c2cnc3ccccc3n2)cc1` [Compound 12, N-(4-(diethylamino)benzyl)-N-(3,4,5-trimethoxybenzyl)quinoxaline-2-carboxamide], the affinity in experiment [2] corresponds to a Ki of 13000 nM. Also, in experiment [3], the “SI: selectivity index for CB2, calculated as Ki(CB1)/Ki(CB2) ratio” value is listed as 52 and the Ki was determined as 249 nM.
